This passage reports TGI results from PubChem BioAssay (NCI).

Test systems include UO-31 renal; UACC-257 melanoma; OVCAR-5 ovarian; CAKI-1 renal; MOLT-4 leukemia; OVCAR-3 ovarian; HOP-92 NSCLC; HL-60(TB) leukemia; OVCAR-4 ovarian; T-47D breast.
Common to all, as to assay: growth of human tumour cells (NCI), 48 h

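Tested at 5 concentrations; 48 h exposure; 96-well plates; endpoints linearly interpolated, else capped at highest concentration. TGI is the concentration that stops growth completely.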 A value given as a limit tells only on which side of the number the result lay.

Consider `Cc1nc2c(o1)C(=O)c1ccccc1/C2=N/c1ccccn1`, for which the TGI with UO-31 renal came to 39.3 µM; with UACC-257 melanoma, 26.9 µM; in the assay with OVCAR-5 ovarian, 32.4 µM; in the assay with CAKI-1 renal it was 47.9 µM; in the assay on MOLT-4 leukemia it was 43.2 µM; in the assay on OVCAR-3 ovarian it was 49.3 µM. In addition, the TGI in the assay with HOP-92 NSCLC is 36.9 µM; in the assay with HL-60(TB) leukemia, 44.2 µM; in the assay on OVCAR-4 ovarian, 28.2 µM.

On to `CC(=O)OC1CC2CCC1(C)C2(C)C` (centres undefined), for which the TGI in the assay with UO-31 renal, in the assay on UACC-257 melanoma, in the assay on T-47D breast, with OVCAR-5 ovarian, in the assay on MOLT-4 leukemia and in the assay on OVCAR-3 ovarian was greater than 100 µM throughout. Further, the TGI with HL-60(TB) leukemia and with OVCAR-4 ovarian was greater than 100 µM each time.

On to `CN1CCC2(CC1)C(=O)N(N1CCCCCC1)C(=O)N2c1ccccc1`, for which the TGI with UO-31 renal, in the assay on UACC-257 melanoma, with T-47D breast, in the assay with OVCAR-5 ovarian, with CAKI-1 renal and in the assay with MOLT-4 leukemia was greater than 100 µM in each case. Moreover, the TGI in the assay with OVCAR-3 ovarian, in the assay with HL-60(TB) leukemia and in the assay on OVCAR-4 ovarian was greater than 100 µM in each case.

As to `CCOP(=O)(/C=C\n1cnc2c(=O)n(C(C)=O)c(N)nc21)OCC`, the TGI with UACC-257 melanoma, in the assay with T-47D breast, in the assay with OVCAR-5 ovarian, with CAKI-1 renal, in the assay on MOLT-4 leukemia and with OVCAR-3 ovarian was greater than 100 µM throughout. Further, the TGI in the assay on HL-60(TB) leukemia and with OVCAR-4 ovarian was greater than 100 µM throughout.

Take `O=C1NC2(CCCCC2)N=C2C(Cl)CCCC12Cl` (centres undefined): the TGI in the assay with UO-31 renal, with T-47D breast, with OVCAR-5 ovarian, with MOLT-4 leukemia, in the assay on OVCAR-3 ovarian and in the assay on HL-60(TB) leukemia was greater than 100 µM each time. In addition, the TGI with OVCAR-4 ovarian was greater than 100 µM.

Regarding `CCOc1ccccc1/C=C1\NC(=O)N(/C=C2\C(=O)Oc3ccccc3C2=O)C1=O`, the TGI was 75 µM in the assay with UO-31 renal; greater than 100 µM in the assay with UACC-257 melanoma; greater than 100 µM in the assay on OVCAR-5 ovarian; greater than 100 µM with CAKI-1 renal; 64.3 µM with MOLT-4 leukemia; greater than 100 µM in the assay on OVCAR-3 ovarian. In addition, the TGI in the assay with HOP-92 NSCLC is 67.9 µM; with HL-60(TB) leukemia, 74.4 µM; in the assay with OVCAR-4 ovarian, greater than 100 µM.

Consider `O=c1[nH]c2ccc(CC(=S)N3CCOCC3)cc2s1`, for which the TGI with UACC-257 melanoma, in the assay on OVCAR-5 ovarian, in the assay on CAKI-1 renal, in the assay on MOLT-4 leukemia, in the assay with OVCAR-3 ovarian and in the assay with HL-60(TB) leukemia was greater than 100 µM throughout.

For `CC1(O)CC2C(CC1SCCO)C2(C)C` (centres undefined), the TGI in the assay on UO-31 renal, in the assay on UACC-257 melanoma, in the assay with OVCAR-5 ovarian, with MOLT-4 leukemia, with OVCAR-3 ovarian and with HOP-92 NSCLC was greater than 100 µM throughout. Also, the TGI in the assay with HL-60(TB) leukemia and in the assay on OVCAR-4 ovarian was greater than 100 µM in each case.

Take `O=C1c2ccccc2-c2nc(-c3cccnc3)cc3c2c1nc1ccccc13`: the TGI with UO-31 renal, in the assay on UACC-257 melanoma, with OVCAR-5 ovarian, in the assay on CAKI-1 renal, in the assay with MOLT-4 leukemia and in the assay with OVCAR-3 ovarian was greater than 100 µM in each case. In addition, the TGI in the assay on HOP-92 NSCLC, in the assay with HL-60(TB) leukemia and with OVCAR-4 ovarian was greater than 100 µM throughout.

`COC(=O)CC1(CNC(=O)OCc2ccccc2)OCCO1`: the TGI with UO-31 renal, in the assay on UACC-257 melanoma, in the assay with OVCAR-5 ovarian, with CAKI-1 renal, with MOLT-4 leukemia and in the assay on OVCAR-3 ovarian was greater than 100 µM each time. Besides, the TGI with HOP-92 NSCLC, in the assay with HL-60(TB) leukemia and with OVCAR-4 ovarian was greater than 100 µM in each case.

Consider `CCOc1ccc2c(c1)/C(=C(\C(Cl)=C(Cl)Cl)[N+](=O)[O-])N2`, for which the TGI in the assay with UO-31 renal, in the assay with UACC-257 melanoma, in the assay with T-47D breast, in the assay with OVCAR-5 ovarian, in the assay on CAKI-1 renal and in the assay with MOLT-4 leukemia was greater than 100 µM each time. Besides, the TGI with OVCAR-3 ovarian and in the assay on OVCAR-4 ovarian was greater than 100 µM throughout.

Turning to `N#Cc1c(-c2ccccc2)/c(=C\O)c(=O)n2c1nc1ccccc12`, the TGI in the assay on UO-31 renal, in the assay on UACC-257 melanoma, in the assay on T-47D breast, in the assay with OVCAR-5 ovarian, in the assay on CAKI-1 renal and in the assay on MOLT-4 leukemia was greater than 100 µM throughout. The TGI in the assay on HL-60(TB) leukemia and in the assay on OVCAR-4 ovarian was greater than 100 µM in each case.

With `C=C1c2c(cc3c(c2O)c(=O)c2ccccc2n3C)OC1(C)C`, the TGI with UO-31 renal was greater than 100 µM; in the assay on CAKI-1 renal, greater than 100 µM; in the assay with MOLT-4 leukemia, greater than 100 µM; in the assay with OVCAR-3 ovarian, greater than 100 µM; with HOP-92 NSCLC, 65.9 µM; in the assay with HL-60(TB) leukemia, greater than 100 µM.

For `NC(=O)CCC(NCc1c2ccccc2[n+]([O-])c2ccccc12)C(=O)O` (centres undefined), the TGI in the assay on UO-31 renal, in the assay on UACC-257 melanoma, with OVCAR-5 ovarian, in the assay with CAKI-1 renal, in the assay with MOLT-4 leukemia and in the assay on OVCAR-3 ovarian was greater than 100 µM throughout. The TGI in the assay with HL-60(TB) leukemia is 74.1 µM; with OVCAR-4 ovarian, greater than 100 µM.

As to `Cc1cccc(Nc2cn(COCc3ccccc3)c(=O)[nH]c2=O)c1`, the TGI in the assay on UO-31 renal, in the assay with UACC-257 melanoma, in the assay with OVCAR-5 ovarian, with CAKI-1 renal, in the assay on MOLT-4 leukemia and in the assay on OVCAR-3 ovarian was greater than 100 µM in each case. For the same compound, the TGI in the assay with HOP-92 NSCLC, in the assay with HL-60(TB) leukemia and in the assay with OVCAR-4 ovarian was greater than 100 µM each time.

For the compound `N#Cc1[nH]c(=O)n(-c2ccc(Cl)cc2)c1N`, the TGI with UACC-257 melanoma, in the assay with T-47D breast, in the assay on OVCAR-5 ovarian, in the assay on CAKI-1 renal, in the assay with MOLT-4 leukemia and in the assay on OVCAR-3 ovarian was greater than 10 µM in each case. Further, the TGI in the assay with HL-60(TB) leukemia and in the assay with OVCAR-4 ovarian was greater than 10 µM in each case.
